Nine molecules from patent publication US4962109A, “Insecticidally and acaricidally active pyrimidine esters and intermediates therefor” (Imperial Chemical Industries PLC, priority 1985, dated 1990) can be followed below.

Common to all, as to format: in vivo
For test [1], the system named is Blattella germanica (cockroach nymphs). Briefly: Residual test on cockroach nymphs (BG/R), Plastic pot, mortality. The settings on record: 72 h, 3 days, read-out: BG/R grading of mortality. How it is done:
(§1) The activity of the Product was determined using a variety of insect pests. The Product was used in the form of liquid preparations containing 500, 250 or 100 parts per million (ppm) by weight of the Product. The preparations were made by dissolving the Product in acetone and diluting the solutions with water containing 0.01% by weight of a wetting agent sold under the trade name "LISSAPOL" NX until the liquid preparations contained the required concentration of the Product. "Lissapol" is a Registered Trade Mark.
(§2) The test procedure adopted with regard to each pest was basically the same and comprised supporting a number of the pests on a medium which was usually a host plant or a foodstuff on which the pests feed, and treating either or both the pests and the medium with the preparations. The mortality of the pests was then assessed at periods usually varying from one to three days after the treatment.
(§3) The results of the tests are given in Table III for each of the Products, at the rate in parts per million given in the second column as a grading of mortality designated as A, B or C wherein A indicates 80-100% mortality or knockdown, B indicates 50-79% mortality or knockdown and C indicates less than 50% mortality or knockdown.
BG/R Blattella germanica

Test [2] concerns Tetranychus urticae (spider mites - adult). Briefly: Contact test on spider mites - adult (TUa), French bean leaf, mortality. The settings on record: 72 h, 500 ppm, contact, 3 days, read-out: TUa grading of mortality. The method, boiled down: (§4)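 Compound dissolved in acetone, diluted with water containing 0.01% by weight wetting agent to 500, 250 or 100 ppm. Pests held on host plant or foodstuff; pests and/or medium treated. Mortality scored one to three days later as grade A (80-100%), B (50-79%) or C (<50%) mortality or knockdown.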

The test system of test [3] is Diabrotica balteata (rootworm larvae). Briefly: Residual test on rootworm larvae (DB), Filter paper/maize seed, mortality. The settings on record: 48 h, 500 ppm, residual, read-out: DB grading of mortality. The method, boiled down: as §4
The subject of test [4] is Spodoptera exigua (lesser army worm - larvae). Briefly: Residual test on lesser army worm larvae (SP), Cotton leaf, mortality. The settings on record: 48 h, 500 ppm, residual, read-out: SP grading of mortality. In short, it runs like this:
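Product dissolved in acetone and diluted in water with 0.01% wetting agent to 500, 250 or 100 ppm; larvae and/or cotton leaf host treated. Mortality or knockdown scored one to three days later and graded A (80-100%), B (50-79%) or C (<50%).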

Test [5] has as its system Musca domestica (houseflies - adults). Briefly: Knockdown test on houseflies - adults (MD/KD), Cotton wool/sugar. The settings on record: 500 ppm, 4 hours, read-out: MD/KD grading of knockdown. The method, boiled down:
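Adult houseflies exposed to the compound at 500, 250 or 100 ppm in acetone/water with 0.01% wetting agent, on a cotton wool/sugar medium. Knockdown and mortality assessed, graded A (80-100%), B (50-79%) or C (<50%).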

Test [6] relates to Tetranychus urticae (spider mites - ova). Briefly: Contact test on spider mites - ova (TUe), French bean leaf, mortality. The settings on record: 144 h, 500 ppm, contact, 6 days, read-out: TUe grading of mortality. In short, it runs like this: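 Graded read-out: A 80-100%, B 50-79%, C below 50% mortality or knockdown, assessed usually 1-3 days post-treatment. Liquid preparations at 500, 250 or 100 ppm by weight, from acetone solution diluted in water with 0.01% wetting agent, applied to pests and/or their host plant or food medium.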

The test system of test [7] is Nilaparvata lugens (brown plant hopper). As to the kind of experiment: Contact test on brown plant hopper (NL), Rice plant, mortality. The settings on record: 72 h, 3 days, read-out: NL grading of mortality. The protocol: as §1, §2, §3
The subject of test [8] is Heliothis virescens (tobacco budworm - larvae). Briefly: Residual test on tobacco budworm larvae (HV), Cotton leaf, mortality. The settings on record: 48 h, read-out: HV grading of mortality. In short, it runs like this: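 Product in acetone diluted with water containing 0.01% Lissapol NX, at 500, 250 or 100 ppm; pests and/or host medium (here cotton leaf) treated. Mortality scored one to three days later, graded A (80-100%), B (50-79%), C (<50%).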

The subject of test [9] is Musca domestica (houseflies - adults). Briefly: Contact test on houseflies - adults (MD), Cotton wool/sugar, mortality. The settings on record: 500 ppm, contact, read-out: MD grading of mortality. The method, boiled down: as §4
The test system of a further test is Myzus persicae (aphids). As to the kind of experiment: Contact test on aphids (MP), Chinese Cabbage leaf, mortality. The settings on record: 72 h, 500 ppm, contact, 3 days, read-out: MP grading of mortality. In short, it runs like this:
as §4

The subject of test [10] is Nephotettix cincticeps (green leaf hopper - nymphs). As to the kind of experiment: Contact test on green leaf hopper nymphs (NC), Rice plant, mortality. The settings on record: 500 ppm, contact, read-out: NC grading of mortality. In short, it runs like this: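 Product dissolved in acetone, diluted in water with 0.01% wetting agent to 500, 250 or 100 ppm; nymphs and/or host rice plants treated. Mortality or knockdown assessed 1–3 days later, graded A (80-100%), B (50-79%), C (<50%).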

Setting [11] is: 24 h, ** test duration of 1 day.

Like-named read-outs stand apart in the source and are kept apart here. Bounds are passed on as bounds.

As to `CC[C@@H](C(=O)O[C@@H](C#N)c1ccc(F)c(Oc2ccccc2)c1)c1cnc(C(C)(C)C)nc1` (racemic) [Compound 121, (RS)-α-cyano-4-fluoro-3-phenoxybenzyl (RS)-2-[2-(1,1-dimethylethyl)pyrimidin-5-yl]butanoate], the mortality at 500 ppm in test [1] was less than 50%; in test [2] it was 80 to 100%; in test [3] (* test duration of 3 days) it was 80 to 100%; in test [4] (* test duration of 3 days), 80 to 100%; in test [6] it was less than 50%; in test [7], less than 50%. The mortality at 500 ppm (in test [8]; in test [9] (setting [11]); in the test on Myzus persicae (aphids)) was 80 to 100% in each case. The pest or weed control at 500 ppm in test [5] lay within 50 to 79%.

For the molecule `C=CCc1c(F)c(F)c(COC(=O)C(CC)c2cnc(C(C)(C)C)nc2)c(F)c1F` (racemic) [Compound 123, 2,3,5,6-tetrafluoro-4-(prop-2-en-1-yl)benzyl (RS)-2-[2-(1,1-dimethylethyl)pyrimidin-5-yl]butanoate], the mortality at 500 ppm was 50 to 79% in [1]; 80 to 100% in test [2]; less than 50% in test [3] (* test duration of 3 days); 80 to 100% in test [4] (* test duration of 3 days); 80 to 100% in test [6]; 80 to 100% in test [7]. Further, the mortality at 500 ppm (in [8]; in test [9] (setting [11]); in the test with Myzus persicae (aphids)) was 80 to 100% each time. Besides, the pest or weed control at 500 ppm in test [5] fell in the range of 80 to 100%.

Turning to `COCc1c(F)c(F)c(COC(=O)C(c2cnc(Cl)nc2)C(C)C)c(F)c1F` (racemic) [Compound 118, 2,3,5,6-tetrafluoro-4-(methoxymethyl)benzyl (RS)-2-(2-chloropyrimidin-5-yl)-3-methylbutanoate], the mortality at 500 ppm in test [1] is less than 50%; in test [2] it was 50 to 79%; in [3] (* test duration of 3 days) it was less than 50%; in test [4] (* test duration of 3 days), 50 to 79%; in [6] it was less than 50%; in test [7], less than 50%. Further, the results for the mortality at 500 ppm (in test [8]; in test [9] (setting [11]); with Myzus persicae (aphids)) were 50 to 79%, 80 to 100% and 80 to 100%, respectively.

Regarding `CCC(C(=O)OCc1c(F)c(F)c(C)c(F)c1F)c1cnc(C(C)(C)C)nc1` (racemic) [Compound 122, 2,3,5,6-tetrafluoro-4-methyl (RS)-2-[2-(1,1-dimethylethyl)pyrimidin-5-yl]butanoate], the mortality at 500 ppm in test [1] is less than 50%; in test [2], 80 to 100%; in test [3] (* test duration of 3 days), 50 to 79%; in test [4] (* test duration of 3 days) it was 80 to 100%; in test [6], less than 50%; in [7] it was less than 50%. The mortality at 500 ppm (in test [8]; in test [9] (setting [11]); in the test on Myzus persicae (aphids)) was 80 to 100% in each case. The pest or weed control at 500 ppm in [5] was in the range of 80 to 100%.

Regarding `COCc1c(F)c(F)c(COC(=O)C(c2cnc(C(F)(F)F)nc2)C(C)C)c(F)c1F` (racemic) [Compound 116, 2,3,5,6-tetrafluoro-4-(methoxymethyl)benzyl (RS)-2-(2-trifluoromethylpyrimidin-5-yl)-3-methylbutanoate], the mortality at 500 ppm in [1], in [2], in [3] (* test duration of 3 days), in [4] (* test duration of 3 days), in [6] and in [7] was 80 to 100% each time. For the same molecule, the mortality at 500 ppm (in test [8]; in test [9] (setting [11]); with Myzus persicae (aphids)) was 80 to 100% throughout. Moreover, the pest or weed control at 500 ppm in test [5] is 80 to 100%.

As for `C=CCc1c(F)c(F)c(COC(=O)C(c2cnc(N(C)C)nc2)C(C)C)c(F)c1F` (racemic) [Compound 115, 2,3,5,6-tetrafluoro-4-(prop-2-en-1-yl)benzyl (RS)-2-[2-(N,N-dimethylamino)pyrimidin-5-yl]-3-methylbutanoate], the mortality at 500 ppm is 80 to 100% in test [1]; 80 to 100% in [2]; less than 50% in [3] (* test duration of 3 days); 80 to 100% in test [4] (* test duration of 3 days); 80 to 100% in [6]; less than 50% in test [7]. Further, the mortality at 500 ppm (in [8]; in test [9] (setting [11]); in the test on Myzus persicae (aphids)) was 80 to 100% in each case. In addition, the pest or weed control at 500 ppm in test [5] was less than 50%.

On to `CC(C)(C)c1ncc(C(C(=O)OCc2c(F)c(F)c(Cc3ccccc3)c(F)c2F)C(C)(C)C)cn1` (racemic) [Compound 17, 4-benzyl-2,3,5,6-tetrafluorobenzyl (RS)-2-[2-(1,1-dimethylethyl)pyrimidin-5-yl]-3,3-dimethylbutanoate], for which the mortality at 500 ppm in [1] was less than 50%; in test [2], 50 to 79%; in test [3] (2 days), 80 to 100%; in [10] (48 h, 2 days), less than 50%; in test [4] (2 days), less than 50%; in [6] it was less than 50%. Besides, the mortality at 500 ppm in [8] was less than 50%; in [9] (72 h, 3 days), less than 50%; with Myzus persicae (aphids) it was less than 50%. Also, the pest or weed control at 500 ppm in [5] is less than 50%.

For `COCc1c(F)c(F)c(COC(=O)C(c2cnc(C(C)(C)C)nc2)C(C)(C)C)c(F)c1F` (racemic) [Compound 15, 2,3,5,6-tetrafluoro-4-(methoxymethyl)benzyl (RS)-2-[2-(1,1-dimethylethyl)pyrimidin-5-yl]-3,3-dimethylbutanoate], the mortality at 500 ppm in [1] was in the range of 50 to 79%; in [2] it was 80 to 100%; in test [3] (* test duration of 3 days), 80 to 100%; in [10] (72 h, * test duration of 3 days), 80 to 100%; in [4] (* test duration of 3 days) it was 80 to 100%; in test [6] it was 80 to 100%. For the same molecule, the mortality at 500 ppm (in test [8]; in [9] (setting [11]); in the test on Myzus persicae (aphids)) was 80 to 100% each time. The pest or weed control at 500 ppm in test [5] lay in the range of 80 to 100%.

Turning to `C=CCc1c(F)c(F)c(COC(=O)C(c2cnc(-c3ccccc3)nc2)C(C)C)c(F)c1F` (racemic) [Compound 113, 4-(prop-2-en-1-yl)-2,3,5,6-tetrafluorobenzyl (RS)-2-[2-phenylpyrimidin-5-yl)-3-methylbutanoate], the mortality at 500 ppm in test [1], in test [2], in test [3] (* test duration of 3 days), in test [4] (* test duration of 3 days), in [6] and in test [7] was less than 50% in each case. For the same molecule, the values for the mortality at 500 ppm (in test [8]; in test [9] (setting [11]); in the test on Myzus persicae (aphids)) were less than 50%, 80 to 100% and 50 to 79%, respectively. Further, in test [5], the pest or weed control at 500 ppm was in the range of 80 to 100%.
